Test results: patent publication US20070219144A1, “IMMUNOMODULATORY SACCHARIDE COMPOUNDS” (University of Alberta, priority 2006, published 2007)
Entries after “also recorded” stand apart in the source; their conditions may differ.

Assays:
Assay type in all cases: cell-based, human
TNF-α [1] = test: TNF-α induction in THP-1 cells by compound alone (ELISA); details: 10 or 100 μg/mL
Procedure: (§1) Experiments were conducted to determine the role for the MTX residue. Given its location in the capping motif in LAM from M. tuberculosis, it was hypothesized that the residue may function as an immunomodulatory species. Thus, the ability of 3 and 34 to induce or inhibit the production of the TNF-α and IL-12p70 was evaluated using a human monocytic cell line (THP-1). THP-1 cells were re-suspended at a concentration of 5×10^6 cells/mL in RPMI 1640+10% FCS+1% GPS (200 mM penicillin/streptomycin (Sigma UK)+2 mM L-glutamine (Invitrogen)) and plated into a 48-well plate (500 μL/well). Cells were treated with either 3 or 34 (100 μg and 10 μg/mL) or AraLAM or ManLAM (10 μg/mL) for 24 hours and then stimulated for a further 8 hours with a combination of Staphylococcus aureus Cowan (SAC) (Pansorbin™, Calbiochem, UK) and human IFNγ (1000 U/mL, Preprotech). Following incubation, the supernatants were collected and stored in 200 μL aliquots (−80° C.) and analyzed by ELISA (R&D systems) for IL12p70 and TNF-α production.

IL-12p70 [2] = test: IL-12p70 induction in THP-1 cells by compound alone (ELISA); details: 10 or 100 μg/mL
Procedure: as §1

TNF-α [3] = test: Inhibition of IFN-γ/SAC-induced TNF-α production in THP-1 cells after pre-incubation (ELISA); details: for inhibition of TNF-α production induced by IFN-γ/SAC / induction of TNF-α production in the IFN-γ/SAC assay: 5 μM, FIG. 12; for inhibition of TNF-α response induced by IFN-γ/SAC: FIG. 11A; for inhibition of the cytokine response (TNF-α) induced by IFN-γ/SAC: general statement, no concentration given
IL-12p70 [4] = test: Inhibition of IFN-γ/SAC-induced IL-12p70 production in THP-1 cells after pre-incubation (ELISA); details: for inhibition of IL-12p70 production induced by IFN-γ/SAC: 5 μM, FIG. 13; for inhibition of IL-12p70 response induced by IFN-γ/SAC: 10 or 100 μg/mL, FIG. 11B; for inhibition of the cytokine response (IL-12p70) induced by IFN-γ/SAC: general statement, no concentration given

CO[C@H]1OC(CO)[C@@H](O[C@H]2O[C@H](C[S+](C)[O-])C(O)[C@@H]2O)[C@H](O)C1O (mixture of isomers) [Compound 34]
induction of TNF-α production (TNF-α [1]): Neither 3 nor 34, when tested at concentrations of 10 or 100 μg/mL, significantly induced the production of these two cytokines; also recorded: did not lead to production
induction of IL-12p70 production (IL-12p70 [2]): Neither 3 nor 34, when tested at concentrations of 10 or 100 μg/mL, significantly induced the production of these two cytokines; also recorded: did not lead to production
inhibition of TNF-α production induced by IFN-γ/SAC (TNF-α [3]): weaker inhibitor than 3
inhibition of TNF-α response induced by IFN-γ/SAC (TNF-α [3]; 10 μg/mL): less effective and comparable to AraLAM at 10 μg/mL
inhibition of the cytokine response (TNF-α) induced by IFN-γ/SAC (TNF-α [3]): modest levels of inhibition; also recorded: modest inhibitory properties
inhibition of IL-12p70 production induced by IFN-γ/SAC (IL-12p70 [4]): less active
inhibition of IL-12p70 response induced by IFN-γ/SAC (IL-12p70 [4]): only a very modest effect
inhibition of the cytokine response (IL-12p70) induced by IFN-γ/SAC (IL-12p70 [4]): modest levels of inhibition; also recorded: modest inhibitory properties

CO[C@H]1O[C@H](CO)[C@@H](O)[C@H](O)[C@@H]1O[C@H]1O[C@H](CSC)[C@H](O)[C@H]1O [Compound 1, Methyl 2-O-(5-deoxy-5-methylthio-α-D-xylofuranosyl)-α-D-mannopyranoside]
induction of TNF-α production in the IFN-γ/SAC assay (TNF-α [3]): appeared to induce production of TNF-α to varying degrees
inhibition of TNF-α production induced by IFN-γ/SAC (TNF-α [3]): none of these compounds inhibited cytokine induction
inhibition of IL-12p70 production induced by IFN-γ/SAC (IL-12p70 [4]): inhibited induction, but to a degree intermediate between 3 and 34

CO[C@H]1O[C@H](CO)[C@@H](O)[C@H](O[C@H]2O[C@H](CSC)[C@H](O)[C@H]2O)[C@@H]1O [Compound 2, Methyl 3-O-(5-deoxy-5-methylthio-α-D-xylofuranosyl)-α-D-mannopyranoside]
induction of TNF-α production in the IFN-γ/SAC assay (TNF-α [3]): appeared to induce production of TNF-α to varying degrees
inhibition of TNF-α production induced by IFN-γ/SAC (TNF-α [3]): none of these compounds inhibited cytokine induction
inhibition of IL-12p70 production induced by IFN-γ/SAC (IL-12p70 [4]): inhibited induction, but to a degree intermediate between 3 and 34

CO[C@H]1O[C@H](CO)[C@@H](O[C@H]2O[C@H](CSC)[C@H](O)[C@H]2O)[C@H](O)[C@@H]1O [Compound 3, Methyl 4-O-(5-deoxy-5-methylthio-α-D-xylofuranosyl)-α-D-mannopyranoside]
induction of TNF-α production (TNF-α [1]): Neither 3 nor 34, when tested at concentrations of 10 or 100 μg/mL, significantly induced the production of these two cytokines; also recorded: did not lead to production
induction of IL-12p70 production (IL-12p70 [2]): Neither 3 nor 34, when tested at concentrations of 10 or 100 μg/mL, significantly induced the production of these two cytokines; also recorded: did not lead to production
inhibition of TNF-α production induced by IFN-γ/SAC (TNF-α [3]): inhibited TNF-α production to a similar degree as a 5 μM concentration of ManLAM
inhibition of TNF-α response induced by IFN-γ/SAC (TNF-α [3]; 100 μg/mL): level of inhibition comparable with ManLAM at 10 μg/mL
inhibition of the cytokine response (TNF-α) induced by IFN-γ/SAC (TNF-α [3]): modest levels of inhibition; also recorded: modest inhibitory properties
inhibition of IL-12p70 response induced by IFN-γ/SAC (IL-12p70 [4]): only a very modest effect
inhibition of the cytokine response (IL-12p70) induced by IFN-γ/SAC (IL-12p70 [4]): modest levels of inhibition; also recorded: modest inhibitory properties

CO[C@H]1O[C@H](CO)[C@@H](O[C@@H]2O[C@@H](CSC)[C@@H](O)[C@@H]2O)[C@H](O)[C@@H]1O [Compound 6, Methyl 4-O-(5-deoxy-5-methylthio-α-L-xylofuranosyl)-α-D-mannopyranoside]
induction of TNF-α production in the IFN-γ/SAC assay (TNF-α [3]): appeared to induce production of TNF-α to varying degrees
inhibition of TNF-α production induced by IFN-γ/SAC (TNF-α [3]): none of these compounds inhibited cytokine induction
inhibition of IL-12p70 production induced by IFN-γ/SAC (IL-12p70 [4]): inhibited induction, but to a degree intermediate between 3 and 34

CO[C@H]1O[C@H](CO)[C@H](O)[C@H]1O [Compound 35, methyl α-D-xylofuranoside, reference compound]
induction of TNF-α production in the IFN-γ/SAC assay (TNF-α [3]): appeared to induce production of TNF-α to varying degrees
inhibition of TNF-α production induced by IFN-γ/SAC (TNF-α [3]): none of these compounds inhibited cytokine induction
inhibition of IL-12p70 production induced by IFN-γ/SAC (IL-12p70 [4]): inhibited induction, but to a degree intermediate between 3 and 34
